71 molecules from ChEMBL document CHEMBL3507680, “University of Dundee, Gates Library screen for HepG2 cell viability” can be followed below.

SMILES strings stand for the structures. Where “and” joins values, the source holds several entries; their conditions need not be identical. Equal entries are not always repeated.

The first series can be described thus: Human HepG2 cell viability assay in 384 well format. The series is classed as toxicity, cell-based. Details: dose 125 nL, time 70.5 hour; cytotoxicity at 70.5 h: concentration not given beside the values. The note with it: HepG2 cells, read-out: Inhibition.
`COc1cc(C)sc1C(=O)NCCNc1ccccc1`: the cytotoxicity at 70.5 h amounted to 11.2%. In the case of `O=C(CN1CCOC(Cn2cncn2)C1)NC(C1CC1)C1CC1` (stereo unspecified), the cytotoxicity at 70.5 h came out at 9.73%. Still for that read-out and setting: the same measure for `Cc1cc(=O)[nH]c(-n2nc(C)c(CCC(=O)NCc3ccco3)c2C)n1`: 31.1%.

For `Cc1nc(C)n(CC2CCCN(CCCOc3ccccc3)C2)n1` (stereo unspecified), the cytotoxicity at 70.5 h is -0.0538%. The same measure, in the same setting: the figure for `CSc1ccc(C)c(C(=O)Nc2c(C(N)=O)n[nH]c2C)c1` is -5.86%; for `CC(=O)N1CCC(c2nnc3ccc(C(=O)NC(C)C)cn23)C1` (stereo unspecified) it is -1.85%. The same measure, in the same setting: the same measure for `O=C(c1ccc(Cl)s1)N1CCC2(COc3ncccc3S(=O)(=O)N2)C1` (stereo unspecified): -8.51%; for `CCc1cnc(C)nc1NCCN1CCOCC1`: -0.575%; for `COc1ccc([C@@H]2C[C@H](NC(C)=O)C[C@H](Cc3ccccc3)O2)cn1`: -6.79%.

On to `COc1ccccc1OC1CN(C(=O)C(c2ccc(F)cc2)N(C)C)C1` (stereo unspecified), for which the cytotoxicity at 70.5 h is -1.1%. As to `Cc1cccc(CN2C(=O)CCC23CCN(C(=O)NC(C)C)CC3)n1`, the cytotoxicity at 70.5 h was -2.54%. Same read-out and setting: the figure for `CNC(=O)c1ccc(C2CN(C(=O)c3coc(C)n3)CCO2)nc1` (stereo unspecified) is -11.4%; for `C[C@H]1CN(Cc2cnn(C)c2)C[C@@]12CCN(Cc1cccnc1)C2=O` it is -7.75%; for `O=C(CC1CC1)N1C[C@@H]2CN(c3ccccc3)C(=O)[C@@H]2C1` it is -8.68%.

As for `O=C(Nc1ccc(F)cc1)C1CNCCN1C(=O)CC1CCCCC1` (stereo unspecified), the cytotoxicity at 70.5 h turned out to be 31.3%.

Turning to `CC(=O)NCCCOc1c(C)cccc1Cl`, the cytotoxicity at 70.5 h is -2.28%.

Regarding `Cn1ccnc1CNC(=O)CC1CCCCO1` (stereo unspecified), the cytotoxicity at 70.5 h was -6.84%.

With `Cc1ccc(CNC2CCCN(Cc3noc(C4CC4)n3)C2)s1` (stereo unspecified), the cytotoxicity at 70.5 h stood at 28.4%. Regarding `O=C1NCCN(Cc2cccnc2)C1CC(=O)N1CCc2n[nH]cc2C1` (stereo unspecified), the cytotoxicity at 70.5 h is -0.172%. The same measure, in the same setting: the figure for `COCC(=O)NCCC(=O)N1CCN(S(=O)(=O)c2cccc(Br)c2)CC1` is -2.7%; for `Cc1cc(NC(=O)N2CCN(c3cccs3)CC2)ccc1C(N)=O` it is 8.16%. Same read-out and setting: the same measure for `CCc1n[nH]c(C2CN(C(=O)c3ccc4c(c3)CCC4)CCO2)n1` (stereo unspecified): -2.27%. `CCOCCCNC(=O)NC(C)c1ccc(-n2cncn2)cc1` (stereo unspecified): the cytotoxicity at 70.5 h is -5.55%. Same read-out and setting: the same measure for `CCc1ccc(CNCC2CCN(CCO)CC2)cc1`: 16.5%; for `O=C(NCC1CC1)[C@H]1CC[C@@H]2[C@@H](CCN2Cc2ccoc2)O1`: -12.5%. The same measure, in the same setting: the figure for `CC1(c2ncc(CN3CCN(c4ccccn4)CC3)cn2)CCCCO1` (stereo unspecified) is -1.83%; for `CCn1c(C)nnc1Sc1nn2cc(C)nc2s1` it is -5.8%; for `Cc1nc(Oc2ccccc2Cl)sc1C(=O)O` it is -15.5%. Take `COc1ccc(S(=O)(=O)NC(=O)c2c(C)noc2C(C)C)cc1C`: the cytotoxicity at 70.5 h is -5.8%. With `COCCN1CCCC(O)(CN2CCN(Cc3ccncc3)CC2)C1=O` (stereo unspecified), the cytotoxicity at 70.5 h is -8.23%.

As to `CCCS(=O)(=O)N1CC[C@@H]2[C@@H]1CC(=O)N2Cc1csc(C)n1`, the cytotoxicity at 70.5 h was -4.88%. Same read-out and setting: the figure for `CC1(c2ccc(Br)cc2)CC(=O)N(CC(N)=O)C1=O` (stereo unspecified) is 32.3%; for `COCc1nc2cc3c(cc2c(=O)o1)OCCCO3` it is -7.11%; for `O=C1CC(c2ccc(C(=O)O)cc2)c2ncn(-c3ccccc3)c2N1` (stereo unspecified) it is -6.45%. The same measure, in the same setting: the same measure for `CN(CCNS(C)(=O)=O)CC(c1cccs1)N1CCOCC1` (stereo unspecified): -8.66%; for `Cc1noc([C@H]2COC[C@H]3CN(C(=O)Cc4cccc(F)c4)C[C@H]32)n1`: -16.4%; for `Cn1cc(C2=CCN(CCC(=O)NCc3ccc(Cl)cc3)CC2)cn1`: -2.89%. Still for that read-out and setting: the same measure for `Cc1cccc(-n2cnnc2CCCN2CCOCC2)c1`: -7.97%; for `Cc1cc(F)cc(S(=O)(=O)NCCCN2CCC(O)CC2)c1`: 11.3%; for `CN1C(=O)CC(c2cnn(C)c2)C12CCN(C(=O)c1cscn1)CC2` (stereo unspecified): -2.36%. Turning to `Cc1cc(NC(=O)C(C)C)n(-c2nc(C)c(C)c(=O)[nH]2)n1`, the cytotoxicity at 70.5 h came out at 56.9%. The same measure, in the same setting: the same measure for `Cc1cc(NCCc2cnccn2)nc(-c2ccccc2O)n1`: -12.4%; for `CCCN1CCN(C(=O)c2cnccc2C)[C@H]2CS(=O)(=O)C[C@H]21`: -3.96%. Consider `Cc1cnc(NC(C)Cc2cnccn2)nc1N(C)C` (stereo unspecified), for which the cytotoxicity at 70.5 h is -4.28%. Consider `CCSCCC(C)N(C)C(=O)c1cc(C)on1` (stereo unspecified), for which the cytotoxicity at 70.5 h is -3.26%. For `Cc1cc(NC(=O)NCc2cccnc2OC2CCCC2)n(C)n1`, the cytotoxicity at 70.5 h is -2.74%. Still for that read-out and setting: the figure for `Cc1cc(C[C@@H]2COC[C@@H]2NC(=O)CN2CCc3ccccc3C2)on1` is 8.76%; for `CS(=O)(=O)CCN1CCC(=Cc2ccccc2)CC1` it is -3.57%; for `c1ccc2c(N3CCCCC3Cn3cccn3)ncnc2c1` (stereo unspecified) it is -1.4%.

Consider `O=C(NC[C@]1(O)CN(Cc2ncccc2F)C[C@H]1O)c1cc[nH]n1`, for which the cytotoxicity at 70.5 h is 21.3%. Take `Cc1nc(C)n(CC2CCCN2CC(=O)Nc2ccnn2C(C)C)n1` (stereo unspecified): the cytotoxicity at 70.5 h amounted to 17%. Same read-out and setting: the figure for `COc1ccnc(NC(=O)CSCc2cccnc2)c1` is -1.54%. Still for that read-out and setting: the same measure for `COCCN1CCN(Cc2nnc(-c3occc3C)o2)CC1`: -6.39%; for `COc1cccc(OCC2CCCN(Cc3ncc[nH]3)C2)c1` (stereo unspecified): 33.4%.

Turning to `Cc1cnn(CC2CCCN2C(=O)c2c(F)cccc2Cl)c1` (stereo unspecified), the cytotoxicity at 70.5 h was 0.266%. Still for that read-out and setting: the same measure for `O=C(C1CCN(c2ccnc3ccc(Br)cc23)CC1)N1CCOCC1`: 8.35%; for `COc1ccc(CN(C)C(=O)c2nnc(CN(C)C)o2)cc1`: -3.32%; for `Cc1ccc(CCN2C(=O)CC[C@H]3CN(Cc4cnn(C)c4)CC[C@H]32)o1`: -0.704%. The same measure, in the same setting: the same measure for `CCN1CCN(c2ncc(-c3cc(C)no3)c(-c3ccco3)n2)CC1`: -3.95%; for `c1ccc(-c2cc(CNCCN3CCCC3)c3nnnn3c2)cc1`: -3.47%. Same read-out and setting: the figure for `O=C(Cn1nc2ccccc2n1)N1CCCn2cncc2C1` is -8.74%; for `O=C(Cc1ccccc1)N1CCCC2(COCCN(CC3CC3)C2)C1` (stereo unspecified) it is -0.0192%; for `CC(=O)Nc1ncc(S(=O)(=O)Nc2ccc(F)cc2)s1` it is 30.4%.

`c1cc(-c2cn[nH]c2)ccc1CN1CCNCC1`: the cytotoxicity at 70.5 h was -3.83%. Same read-out and setting: the same measure for `COC(=O)CN1CCSC(c2ccccc2)C1` (stereo unspecified): -13.2%. Same read-out and setting: the figure for `CCn1nccc1CNC(=O)C1CCCCC1` is -0.635%; for `CSc1ccc(C(=O)N2CCOCC2c2c(C)n[nH]c2C)o1` (stereo unspecified) it is 18.3%. Still for that read-out and setting: the figure for `O=S(=O)(c1cn[nH]c1)N1CCCC1c1cc[nH]n1` (stereo unspecified) is -7.61%; for `Clc1ccc2oc(C3CCN(Cc4cccnc4)CC3)nc2c1` it is 22.9%. Consider `O=C(Nc1ccccc1)c1ccc(NCc2nccs2)nn1`, for which the cytotoxicity at 70.5 h was -10%.

Still in this series, the particulars now being: hepg2, 70.5 h, 70.5 h.
As a reminder, the Inhibition is the change of the read-out against control, counted positive when it falls. For the molecule `CCOC(=O)CC(c1cccc(OC)c1OC)c1c(C)[nH][nH]c1=O` (stereo unspecified), the Inhibition was -11.36% and -3.674%.
